# Test results: patent US12514849B2, “Pharmaceutical formulations containing relacorilant, a heteroaryl-ketone fused azadecalin compound” (Corcept Therapeutics Incorporated, priority 2018, dated 2026)
# How the values were obtained:
# [1] = Stability of relacorilant to pH, moisture and light; assay type: physicochemical
# Method: Relacorilant stability and compatibility with various excipients was tested and suitable excipients were identified. […] Lauryl polyoxyl-32 glycerides (Gelucire 44/14, available from Gattefosse USA, New Jersey) in place of the stearoyl polyoxyl-32 glycerides were then used. […] This formulation was tested for stability. Stability testing included testing of some formulations for up to one year.
# [2] = Compatibility/stability of relacorilant with excipients at 40° C./75% RH and 60° C.; assay type: physicochemical
# Method: The stability of relacorilant in a series of potential excipients was also examined for two weeks at 40° C. at 75% relative humidity, and at 60° C., including in formulations of Table I. The predominant degradation path was through formation of the aromatic decarbonylation of relacorilant with both propylene glycol monocaprylate and lauroyl polyoxyl-32 glyceride excipients. Relacorilant stability was good with both these excipients.
smiles,measurement,setting,value
"Cn1cc(S(=O)(=O)N2CCC3=Cc4c(cnn4-c4ccc(F)cc4)C[C@]3(C(=O)c3cc(C(F)(F)F)ccn3)C2)cn1 [Relacorilant, (R)-(1-(4-fluorophenyl)-6-((1-methyl-1H-pyrazol-4-yl)sulfonyl)-4,4a,5,6,7,8-hexahydro-1H-pyrazolo[3,4-g]isoquinolin-4a-yl)(4-(trifluoromethyl)pyridin-2-yl)methanone]",sensitivity to moisture and light,[1],sensitive to both moisture and light
same,stability in acidic aqueous solutions,[1]; acidic aqueous solutions,stable
same,stability under basic conditions,[1]; basic conditions,sensitive to basic conditions
same,stability over time in formulations having basic pH,"[1]; basic pH, particularly pH greater than 8, versus neutral or acidic pH",significantly less stable
same,stability in neutral solutions,[1]; neutral solutions at elevated temperatures,degrade over time
same,purity (% relacorilant of relacorilant plus relacorilant-derived impurities),"[2]; in lauroyl polyoxyl-32 glycerides, 40° C./75% RH, 1 week",97.64%
same,purity (% relacorilant of relacorilant plus relacorilant-derived impurities),"[2]; in lauroyl polyoxyl-32 glycerides, 40° C./75% RH, 2 week",97.55%
same,purity (% relacorilant of relacorilant plus relacorilant-derived impurities),"[2]; in lauroyl polyoxyl-32 glycerides, 60° C., 1 week",97.22%
same,purity (% relacorilant of relacorilant plus relacorilant-derived impurities),"[2]; in lauroyl polyoxyl-32 glycerides, 60° C., 2 week",96.77%
same,purity (% relacorilant of relacorilant plus relacorilant-derived impurities),"[2]; in lauroyl polyoxyl-32 glycerides, Control",98.09%
same,purity (% relacorilant of relacorilant plus relacorilant-derived impurities),"[2]; in lauroyl polyoxyl-32 glycerides, T0",98.13%
same,purity (% relacorilant of relacorilant plus relacorilant-derived impurities),"[2]; in propylene glycol monocaprylate, 40° C./75% RH, 1 week",98.00%
same,purity (% relacorilant of relacorilant plus relacorilant-derived impurities),"[2]; in propylene glycol monocaprylate, 40° C./75% RH, 2 week",97.84%
same,purity (% relacorilant of relacorilant plus relacorilant-derived impurities),"[2]; in propylene glycol monocaprylate, 60° C., 1 week",97.51%
same,purity (% relacorilant of relacorilant plus relacorilant-derived impurities),"[2]; in propylene glycol monocaprylate, 60° C., 2 week",96.65%
same,purity (% relacorilant of relacorilant plus relacorilant-derived impurities),"[2]; in propylene glycol monocaprylate, Control",98.03%
same,purity (% relacorilant of relacorilant plus relacorilant-derived impurities),"[2]; in propylene glycol monocaprylate, T0",98.09%
